These results are taken from patent US6683079B2, “3-(amino-or aminoalkyl) pyridinone derivatives and their use for the treatment of HIV related diseases” (Centre National de la Recherche Scientifique, priority 1998, dated 2004).

In data set [1] the test system is HIV-ILai isolate. In words: Retrovirucidal effect (residual infectivity on P4 cells). The class given is cell-based, HIV-1. As to conditions: 3 hours with virions. The method, then:
The retrovirucidal effect and the reverse transcription were measured as described hereinafter.
HIV-1 viral suspensions were obtained by coculture of MT4 cells and H9 cells chronically infected by HIV-ILai isolate. 200 μl of a cell supernatant containing viral particles (HIV-ILai: 100 TCID50) were incubated at room temperature with various concentrations of different inhibitors. After 3 hours, virions were washed through 0.02 μm anopore membrane in 1.5 mL Vectaspin tube (Whatman) for 10 minutes at 5 000 g. Each of the three subsequent washes was performed in the same conditions after the viral concentrate was refilled with 500 μL of RPMI medium. Then, the viral concentrate was readjusted to the initial volume with RPMI plus 10% foetal calf serum (FCS). The residual infectivity was assayed on P4 cells as described by CHARNEAU et al. (1994, J. Mol. Biol., 241, 651-662). Briefly, P4 cells were plated using 100 μL of DMEM medium plus 10% FCS in 96 plate multi-wells at 20×10^5 cells per mL. After overnight incubation at 37° C., the supernatant was discarded and the viral preparation (200 μL) was added. One day later the wells were washed three times in PBS. Each well was refilled with 200 μL of a reaction buffer containing 50 mM Tris-HCl pH 8.5, 100 mM 2-mercaptoethanol, 0.05% Triton X-100 and 5 mM 4-methylumbelliferyl β-D-galactopyranoside (MUG). After 3 hours at 37° C., the level of the reaction was measured in a fluorescence microplate reader.
The retrovirucidal effect of the compound according to example 1 has been tested.

Data set [2] relates to HIV-1 AZTres./MT4. In words: Anti HIV-1 activity, HIV-1 AZT-resistant strain in MT4 cells. It counts as cell-based. As to conditions: Human immunodeficiency virus 1, MT4. The protocol:
(§1) The antiviral activity, the expression and purification of the recombinant HIV-RT enzyme, the reverse transcriptase activities and the inhibition of RT were evaluated as described in WO 97/05 113.
(§2) The compound of example 1 has been also tested on various HIV strains and primary cell cultures. The table 1 illustrates the activity of this compound on these strains.

A short description of data set [3]: Anti HIV-1 activity, HIV-1 IIIB in MT4 cells. As to conditions: human; HIV-1 IIIIB/MT4. The class given is cell-based. The protocol:
as §1, §2

Data set [4] concerns HIV-1 IIIIB/MT4. In words: Anti HIV-1 activity, HIV-1 IIIB in MT4 cells. It counts as cell-based. As to conditions: Human immunodeficiency virus 1. The method, then: as §1, §2
Data set [5] can be described thus: Anti HIV activity, HIV-2 D 194 in PBMC. It counts as cell-based. As to conditions: HIV-2 D 194/PBMC. The protocol: as §1, §2
In data set [6] the test system is HIV-2 D 194/PBMC. The data set is described as follows: Anti HIV activity, HIV-2 D 194 in PBMC. It counts as cell-based. As to conditions: Human immunodeficiency virus 2. The method, then: as §1, §2
Data set [7] is described as follows: Anti HIV-1 activity, HIV-1 IIIB in PBMC. The class given is cell-based. As to conditions: HIV-1 IIIB/PBMC. The protocol: as §1, §2
The test system of data set [8] is HIV-1 IIIB/PBMC. The data set is described as follows: Anti HIV-1 activity, HIV-1 IIIB in PBMC. It counts as cell-based. As to conditions: Human immunodeficiency virus 1. The protocol: as §1, §2
Data set [9] has as its target T1, recombinant HIV-RT enzyme (Human immunodeficiency virus type 1 group M subtype B, UniProt P03366).
T1 construct: the recombinant HIV-RT enzyme; made in house
In words: Inhibition of the reverse transcriptase. The class given is biochemical. The method, then: as §1
The IC50 of the compound of example 1 for the inhibition of the reverse transcriptase is 20 nM.

Data set [10] is described as follows: Antiviral activity on HIV-LAI wild type. The class given is cell-based, HIV-1. As to conditions: HIV-LAI wild type test. The method, then: as §1
(§3) The antiviral activity of the compounds according to example 1 has been tested on various strains.

For data set [11], the system named is HIV-LAI wild type. The data set is described as follows: Antiviral activity on HIV-LAI wild type. It counts as cell-based, HIV-1. As to conditions: HIV-LAI wild type. The protocol:
as §1, §3

The nature of data set [12]: Anti HIV-1 activity, HIV-1 Bal in monocytes/macrophages. It counts as cell-based. As to conditions: HIV-1 Bal/Mono/macrophages. The protocol: as §1, §2
In data set [13] the test system is HIV-1 Bal/Mono/macrophages. The description is as above. The class given is cell-based. As to conditions: Human immunodeficiency virus 1, Macrophage. The protocol: as §1, §2
A short description of data set [14]: Antiviral activity on HIV-1 nevirapine resistant strain. The class given is cell-based. As to conditions: HIV-1 novirapine resistant strain test. The protocol:
as §1
(§4) On an HIV-1 novirapine resistant strain the activities of the compound of example 1 are as follows: […]

In data set [15] the test system is HIV-1 novirapine resistant strain. Described as above. The class given is cell-based. As to conditions: Human immunodeficiency virus 1. The protocol:
as §1, §4

Where only a bound is given, the exact number is not on record here.

Take `CCc1c(C)[nH]c(=O)c(N(C)C)c1Cc1cc(C)cc(C)c1` [Example 1, 3-dimethylamino-4-(3,5-dimethylbenzyl)-5-ethyl-6-methylpyridin-2(1H)-one]: the “% inhibition of infectivity” value turned out to be 83% in data set [1] (1 μm compound) and 99% in [1] (10 μm compound). Further, the inhibition at 0.01 µM in data set [1] (Human immunodeficiency virus 1, 10 nM compound) is 26%. The inhibition at 0.1 µM in data set [1] (Human immunodeficiency virus 1, 100 nM compound) came out at 46%. Moreover, the IC50 is 0.2 nM in [2]; 2.4 nM in data set [4]; greater than 1000 nM in data set [6]; 0.58 nM in data set [8]; 20 nM in [9]; 0.2 nM in [11] (Human immunodeficiency virus 1). For the same molecule, the figures for the 50% inhibitory concentration (IC50) in data set [13] and in data set [15] were 0.004 nM and greater than 10000 nM, respectively. Moreover, the CC50 was greater than 1000 nM in data set [3]; greater than 1000 nM in [5]; greater than 1000 nM in [7]; greater than 100000 nM in data set [10]; greater than 1000 nM in [12]; greater than 10000 nM in [14]. For the same molecule, in data set [11], the S.I. was greater than 33.333.
